The assay has as its target T1, cathepsin B (Bos taurus, UniProt P07688).
T1 construct: gene CTSB; Crude bovine spleen cathepsin B (Sigma C6286)
Briefly: colorimetric cathepsin B assay (Na-CBZ-L-lysine p-nitrophenyl ester), […] h preincubation. The format is biochemical. Particulars: read-out: IC50 values/μM Cat B.

Our source for the IC50 values is article PMC3982558, “Influence of the π-coordinated arene on the anticancer activity of ruthenium(II) carbohydrate organometallic complexes” (Frontiers in Chemistry, 2013).

For the substance “Dichlorido(η^6-biphenyl)(3,5,6-bicyclophosphite-1,2-O-cyclohexylidene-α-D-glucofuranose)ruthenium(II) [compound 6]”, the IC50 came out at 8 ± 0.4 µM.
On to “dichlorido(η^6-p-cymene)(3,5,6-bicyclophosphite-1,2-O-cyclohexylidene-α-D-glucofuranoside)ruthenium(II) [1b]”, for which the IC50 was 4 ± 0.6 µM.
For the substance “dichlorido(η^6-p-cymene)(3,5,6-bicyclophosphite-1,2-O-isopropylidene-α-D-glucofuranose)ruthenium(II) [1a]”, the IC50 came out at 1.5 ± 0.2 µM.
